The results in this text go back to paper doi:10.1101/670703v1 (biorxiv, 2019).

One assay addresses T1, RelTt (Thermus thermophilus, UniProt Q5SHL3).
T1 sequence (Q5SHL3 1-727): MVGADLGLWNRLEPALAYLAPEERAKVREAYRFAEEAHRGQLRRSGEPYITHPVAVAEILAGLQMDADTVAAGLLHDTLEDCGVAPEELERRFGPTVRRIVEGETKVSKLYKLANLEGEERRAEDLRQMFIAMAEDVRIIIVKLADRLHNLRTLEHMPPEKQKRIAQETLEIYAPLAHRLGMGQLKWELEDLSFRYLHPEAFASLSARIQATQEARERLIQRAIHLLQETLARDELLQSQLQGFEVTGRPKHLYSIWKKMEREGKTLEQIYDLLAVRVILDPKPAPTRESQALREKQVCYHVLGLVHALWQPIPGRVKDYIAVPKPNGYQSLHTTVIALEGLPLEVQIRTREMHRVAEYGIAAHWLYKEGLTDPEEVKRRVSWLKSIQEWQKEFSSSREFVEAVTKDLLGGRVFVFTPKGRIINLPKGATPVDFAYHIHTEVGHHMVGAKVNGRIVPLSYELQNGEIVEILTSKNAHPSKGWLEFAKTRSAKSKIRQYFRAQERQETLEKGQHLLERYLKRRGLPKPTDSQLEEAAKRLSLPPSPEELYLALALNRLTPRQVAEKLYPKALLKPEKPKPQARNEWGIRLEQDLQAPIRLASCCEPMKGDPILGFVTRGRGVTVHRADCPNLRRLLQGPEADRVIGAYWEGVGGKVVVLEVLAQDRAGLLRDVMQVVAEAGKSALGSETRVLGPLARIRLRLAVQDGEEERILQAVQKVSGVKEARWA
The assay can be described thus: ppGpp synthetase activity. It counts as biochemical. As to conditions: enzyme alone (also with 70S IC and deacylated tRNAVal).

For another assay, the target named is T2, RelTt^NTD (Thermus thermophilus, UniProt Q5SHL3).
T2 sequence (Q5SHL3 1-355): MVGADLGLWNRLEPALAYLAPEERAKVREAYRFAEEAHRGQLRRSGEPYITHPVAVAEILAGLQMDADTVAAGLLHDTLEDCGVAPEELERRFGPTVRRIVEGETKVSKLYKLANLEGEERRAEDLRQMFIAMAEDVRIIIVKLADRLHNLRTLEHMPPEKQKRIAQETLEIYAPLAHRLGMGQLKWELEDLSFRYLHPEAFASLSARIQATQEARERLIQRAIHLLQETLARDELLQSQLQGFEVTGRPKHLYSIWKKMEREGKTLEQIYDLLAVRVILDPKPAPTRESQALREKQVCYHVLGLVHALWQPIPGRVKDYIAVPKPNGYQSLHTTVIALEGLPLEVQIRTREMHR
The assay can be described thus: isothermal titration calorimetry. Format: binding.

As for `Nc1nc2c(ncn2[C@@H]2O[C@H](COP(=O)(O)OP(=O)(O)O)[C@@H](OP(=O)(O)OP(=O)(O)O)[C@H]2O)c(=O)[nH]1` [ppGpp], at RelTt, the ppGpp synthetase activity entry is on record as “ppGpp synthetase activity of RelTt”. Take `Nc1ncnc2c1ncn2[C@@H]1O[C@H](COP(=O)(O)CP(=O)(O)OP(=O)(O)O)[C@@H](O)[C@H]1O` [APCPP]: the Kd on RelTt^NTD was around 50 µM.
